Measured values published in US6906205B2, “Spiro and dispiro 1,2,4-trioxolane antimalarials” (Medicines for Malaria Venture MMV, priority 2002, dated 2005).
Converted amounts (≈) assume the structure as drawn.

Experiments:
[1] = test system: P. falciparum K1 strain (Thailand resistant to chloroquine); assay: semiautomated microdilution assay, [3H]-hypoxanthine incorporation, K1 strain; format: cell-based, Plasmodium falciparum; conditions: K1 strain, 72 h incubation
Method in brief: (§1)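 Intraerythrocytic stages from unsynchronised stock cultures are exposed to test compounds in a semiautomated microdilution format, and fifty percent inhibitory concentrations are then fitted by logit regression.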

[2] = test system: ANKA strain of P. berghei; assay: single dose STI in vivo screen in infected mice; set-up: species or system Plasmodium berghei; conditions: for Activity (%) po / Activity (%) sc / Activity (%) SSVpo / Activity (%) 3 mg/kg SSV po / Activity (%) 10 mg/kg SSV po: percent reduction in parasitemia day 3 post-infection; for Activity (%) po / Survival (days) po: single 10 mg/kg po in 3% ethanol and 7% Tween 80; for Activity (%) po / Activity (%) sc / Activity (%) SSVpo: mice; for Activity (%) sc / Survival (days) sc: single 10 mg/kg sc in 3% ethanol and 7% Tween 80; for Activity (%) SSVpo: single po dose in standard suspending vehicle (SSV); for Survival (days) po / Survival (days) sc / Survival (days) SSVpo: untreated control 5.6 ± 0.3; for Survival (days) SSVpo: single po dose in SSV; for Activity (%) 10 mg/kg SSV po / Survival (days) 10 mg/kg SSV po: single 10 mg/kg po in SSV
Method in brief: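 Groups of 3-5 Moro SPF or NMRI mice infected with the ANKA strain of P. berghei received a single dose of trioxolane on day one post-infection. The compound was given in 3% ethanol and 7% Tween 80 or in SSV (0.5% w/v CMC, 0.5% v/v benzyl alcohol, 0.4% v/v Tween 80, 0.9% w/v sodium chloride in water). Antimalarial activity was scored as percent reduction in parasitemia on day three and as survival time versus untreated controls. Survival to day 30 counted as cure.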

[3] = test system: P. falciparum NF54 strain (sensitive to standard antimalarials); assay: semiautomated microdilution assay, [3H]-hypoxanthine incorporation, NF54 strain; format: cell-based, Plasmodium falciparum; conditions: NF54 strain, 72 h incubation
Method in brief: as §1

| SMILES | IC50 (ng/ml) K1 [1] | Activity (%) po [2] | Activity (%) sc [2] | Activity (%) SSVpo [2] | Survival (days) po [2] | Survival (days) sc [2] | Survival (days) SSVpo [2] [days] | IC50 (ng/ml) NF54 [3] | Activity (%) 3 mg/kg SSV po ([2]; single 3 mg/kg po in SSV) [%] | Activity (%) 10 mg/kg SSV po [2] [%] | Survival (days) 3 mg/kg SSV po ([2]; single 3 mg/kg po in SSV) [days] | Survival (days) 10 mg/kg SSV po [2] [days] | Activity (%) po ([2]; 10 mg/kg) [%] | Activity (%) sc ([2]; 10 mg/kg) [%] | Survival (days) po ([2]; 10 mg/kg) [days] | Survival (days) sc ([2]; 10 mg/kg) [days] | IC50 ([1]; Plasmodium falciparum, read-out: IC50 (ng/ml) K1) [ng/mL] | IC50 ([3]; Plasmodium falciparum, read-out: IC50 (ng/ml) NF54) [ng/mL] |
| --- | --- | --- | --- | --- | --- | --- | --- | --- | --- | --- | --- | --- | --- | --- | --- | --- | --- | --- |
| O=S(=O)(C[C@H]1CC[C@]2(CC1)OOC1(O2)C2CC3CC(C2)CC1C3)c1ccccc1 (some centres unmarked) [OZ210] | 1.4 ng/mL (≈ 3.34 nM) | 99.23% | 99.94% | 77% | 9.3 days | 10.3 days | 8.0 | 1.6 ng/mL (≈ 3.82 nM) |  |  |  |  |  |  |  |  |  |  |
| O=C(NCCO)[C@H]1CC[C@]2(CC1)OOC1(O2)C2CC3CC(C2)CC1C3 (some centres unmarked) [OZ155] | 12 ng/mL (≈ 34.1 nM) | 53% | 73% | 53% | 6.3 days | 8.3 days | 7.0 | > 10 ng/mL |  |  |  |  |  |  |  |  |  |  |
| O=C(O)c1cccc([C@H]2CC[C@]3(CC2)OOC2(O3)C3CC4CC(C3)CC2C4)c1 (some centres unmarked) [OZ198] | >10/>10 ng/ml | 4% | 6% | 6% | 5.7 days | 5.7 days | 6.0 | >10/>10 ng/ml |  |  |  |  |  |  |  |  |  |  |
| OCC1(CO)COC2(CCC3(CC2)OOC2(O3)C3CC4CC(C3)CC2C4)OC1 (centres unmarked) [OZ121] | 0.96 ng/mL (≈ 2.42 nM) | 91% | 99.61% | 98% | 7.3 days | 7.3 days | 8.0 | 0.41 ng/mL (≈ 1.03 nM) |  |  |  |  |  |  |  |  |  |  |
| COC1(c2ccc(F)cc2)CCC2(CC1)OOC1(O2)C2CC3CC(C2)CC1C3 (centres unmarked) [OZ77] | 1.4 ng/mL (≈ 3.6 nM) | 99.9% | 98% | 74% | 9.0 days | 8.3 days | 6.0 | 2.2 ng/mL (≈ 5.66 nM) |  |  |  |  |  |  |  |  |  |  |
| c1ccc(CN2CCC3(CC2)OOC2(O3)C3CC4CC(C3)CC2C4)cc1 (centres unmarked) [OZ220] | 6.9 ng/mL (≈ 19.4 nM) | 40% | 99.95% | 0% | 6.0 days | 10.0 days | 5.3 | 4.9 ng/mL (≈ 13.8 nM) |  |  |  |  |  |  |  |  |  |  |
| O=C(CCl)N1CCC2(CC1)OOC1(O2)C2CC3CC(C2)CC1C3 (centres unmarked) [OZ87] | 3.6 ng/mL (≈ 10.5 nM) | 22% | 53% |  | 5.7 days | 6.0 days |  | 4.4 ng/mL (≈ 12.9 nM) |  |  |  |  |  |  |  |  |  |  |
| O=C([C@H]1CC[C@]2(CC1)OO[C@]1(O2)C2CC3CC(C2)CC1C3)N1CCNCC1 [OZ368] | 0.63 ng/mL (≈ 1.67 nM) |  |  |  |  |  |  | 0.43 ng/mL (≈ 1.14 nM) | 99 | 99.94 | 9.2 | 9.0 |  |  |  |  |  |  |
| Fc1ccc(OC2CCC3(CC2)OOC2(O3)C3CC4CC(C3)CC2C4)cc1 (centres unmarked) [OZ193] | 5.5 ng/mL (≈ 14.7 nM) | 99.75% | 99.92% | 93% | 9.3 days | 11.0 days | 8.0 | 8.3 ng/mL (≈ 22.2 nM) |  |  |  |  |  |  |  |  |  |  |
| O=C(C[C@H]1CC[C@]2(CC1)OO[C@]1(O2)C2CC3CC(C2)CC1C3)NCc1ccccn1 [OZ295] | 0.44 ng/mL (≈ 1.07 nM) |  |  |  |  |  |  | 0.75 ng/mL (≈ 1.82 nM) | 35 | 47 |  | 7.0 |  |  |  |  |  |  |
| CCOC(=O)C1(C(=O)OCC)COC2(CCC3(CC2)OOC2(O3)C3CC4CC(C3)CC2C4)OC1 (centres unmarked) [OZ120] | 1.2 ng/mL (≈ 2.5 nM) | 33% | 96% | 8% | 6.0 days | 8.0 days | 5.7 | 0.59 ng/mL (≈ 1.23 nM) |  |  |  |  |  |  |  |  |  |  |
| O=C(N1CCCC1)N1CCC2(CC1)OOC1(O2)C2CC3CC(C2)CC1C3 (centres unmarked) [OZ203] | 3.9 ng/mL (≈ 10.8 nM) | 87% | 99.72% | 99.42% | 7.3 days | 9.7 days | 8.7 | 6.7 ng/mL (≈ 18.5 nM) |  |  |  |  |  |  |  |  |  |  |
| CCCCCCCCS(=O)(=O)N1CCC2(CC1)OOC1(O2)C2CC3CC(C2)CC1C3 (centres unmarked) [OZ115] | 11 ng/mL (≈ 24.9 nM) | 33% | 97% | 0% | 6.3 days | 7.3 days | 5.7 | 6.9 ng/mL (≈ 15.6 nM) |  |  |  |  |  |  |  |  |  |  |
| COC(=O)c1ncn(C[C@H]2CC[C@]3(CC2)OOC2(O3)C3CC4CC(C3)CC2C4)n1 (some centres unmarked) [OZ234] | 3.0 ng/mL (≈ 7.44 nM) | 12% | 0% | 0% | 6.0 days | 6.3 days | 6.0 | 3.6 ng/mL (≈ 8.92 nM) |  |  |  |  |  |  |  |  |  |  |
| CS(=O)(=O)NC[C@H]1CC[C@]2(CC1)OOC1(O2)C2CC3CC(C2)CC1C3 (some centres unmarked) [OZ257] | 42 ng/mL (≈ 113 nM) | 99.00% | 99.84% | 99.49% | 8.3 days | 9.7 days | 7.7 | 21 ng/mL (≈ 56.5 nM) |  |  |  |  |  |  |  |  |  |  |
| CS(=O)(=O)c1ccc([C@H]2CC[C@]3(CC2)OOC2(O3)C3CC4CC(C3)CC2C4)cc1 (some centres unmarked) [OZ178] | 21 ng/mL (≈ 50.2 nM) | 32% | 31% | 23% | 7.3 days | 10.0 days | 7.3 | 27 ng/mL (≈ 64.5 nM) |  |  |  |  |  |  |  |  |  |  |
| O=C(NC[C@H]1CC[C@]2(CC1)OOC1(O2)C2CC3CC(C2)CC1C3)c1ccccc1C(=O)NC[C@H]1CC[C@]2(CC1)OOC1(O2)C2CC3CC(C2)CC1C3 (some centres unmarked) [OZ230] | 3.9 ng/mL (≈ 5.44 nM) | 0/0/0% | 0/0/0% | 0/0/0% | 5.3 days | 5.7 days | 5.7 | 3.6 ng/mL (≈ 5.02 nM) |  |  |  |  |  |  |  |  |  |  |
| CC1(C)COC(c2ccc([C@H]3CC[C@]4(CC3)OOC3(O4)C4CC5CC(C4)CC3C5)cc2)=N1 (some centres unmarked) [OZ180] | 3.7 ng/mL (≈ 8.46 nM) |  |  | 97% |  |  | 12.7 | 2.8 ng/mL (≈ 6.4 nM) |  |  |  |  | 99.91 | 65 | 13.7 | 10.3 |  |  |
| CCOC(=O)C1CCC2(CC1)OOC1(O2)C2CC3CC(C2)CC1C3 (centres unmarked) [OZ70] |  | 98% | 94% |  | 7.7/NA/7.7 days | 7.7/NA/7.7 days |  |  |  |  |  |  |  |  |  |  | 1.2 (≈ 3.57 nM) | 1.1 (≈ 3.27 nM) |
| CC(=O)Nc1ccc(S(=O)(=O)N2CCC3(CC2)OOC2(O3)C3CC4CC(C3)CC2C4)cc1 (centres unmarked) [OZ104] | 1.4 ng/mL (≈ 3.03 nM) | 56% | 99.98% | 0% | 6.3 days | 12.0 days | 5.7 | 0.50 ng/mL (≈ 1.08 nM) |  |  |  |  |  |  |  |  |  |  |
| CCOC(=O)CCC1CCCCC12OOC1(CCCCC1)O2 (centres unmarked) [OZ07] | 66 ng/mL (≈ 211 nM) | 0/NA/0^1% | 0/NA/0^1% |  | 6.0 days | 5.7 days |  | 49 ng/mL (≈ 157 nM) |  |  |  |  |  |  |  |  |  |  |
| O=C(C[C@H]1CC[C@]2(CC1)OOC1(O2)C2CC3CC(C2)CC1C3)N1CCCCC1 (some centres unmarked) [OZ218] | 2.0 ng/mL (≈ 5.13 nM) | 98% | 99.68% | 99.30% | 10.0 days | 9.0 days | 14.3 | 3.0 ng/mL (≈ 7.7 nM) |  |  |  |  |  |  |  |  |  |  |
| O=C(O)c1nccnc1C(=O)N1CCC2(CC1)OOC1(O2)C2CC3CC(C2)CC1C3 (centres unmarked) [OZ109] | 21 ng/mL (≈ 50.5 nM) | 2% | 24% | 0% | 5.7 days | 6.3 days | 5.7 | 24 ng/mL (≈ 57.8 nM) |  |  |  |  |  |  |  |  |  |  |
